Here are results for eleven compounds from PMC8308672, “Bioactive Compounds from Euphorbia usambarica Pax. with HIV-1 Latency Reversal Activity” (Pharmaceuticals, 2021).

pEC50: −log10 of the molar value.

For one series, the system named is latent HIV-1. As to the kind of experiment: HIV-1 latency reversal activity, GFP expression of J-Lat 10.6 cells. Particulars: for HIV-1 latency reversal activity of isolated compounds (in words): J-lat 10.6 cells, GFP expression, tested at 1, 10 and 100 μM; for pEC50: Human immunodeficiency virus 1, J-Lat 10.6, read-out: latency EC50, J-Lat 10.6 cells, HIV-1 reactivation dose-response. Format: cell-based. The protocol:
(§1) Figure 1 HIV-1 latency reversal activity of methanolic crude extract (EU), partitioned n-hexane (EU-H), dichloromethane (EU-C), ethyl acetate (EU-E), and water-soluble residue (EU-W) phases. (A) dose-response experiments conducted with Jurkat T cells that were latently infected with full-length HIV-1 reporter construct (J-Lat 10.6 cells), HIV-1 reactivation quantified as % of positive control (PMA); (B) cell viability of each sample at 10, 50, 100, 500, and 1000 μg/mL.
(§2) Jurkat cells with a full-length integrated HIV-1 provirus that have been modified to contain a GFP coding region in place of the env gene (J-lat 10.6 cells) were used for HIV-1 anti-latency activity, cytotoxicity, and cellular activation testing. All 31 compounds were tested at 1, 10, and 100 μM. […] These compounds were further tested at additional concentrations to determine dose response and toxicity curves (Figure 5A–F). Cell viability for all isolated compounds is presented in Figure S106 in the supplementary material.
The HIV-1-infected Jurkat T cell line (J-Lat 10.6) was obtained in January 2019 from the NIH/ATCC HIV-1 Reagent Program (www.hivreagentprogram.org) and cultured in RPMI-based media supplemented with 10% fetal calf serum, 1% penicillin, and 1% streptomycin.
(§3) After in vitro culture, J-lat cells were washed with phosphate-buffered saline (1× PBS) prior to staining with 0.1 µL fixable viability dye Live/Dead Aqua (Cat L34957, www.thermofisher.com) per 10^5 cells for 30 min at 4 °C. Simultaneously, J-lat cells were also stained with antibodies against CD69 conjugated to an APC fluorophore (APC anti-human CD69 antibody, biolegend.com). Cells were then washed and re-suspended in 1× PBS prior to flow cytometry acquisition evaluating for cellular viability, green fluorescent protein (GFP) expression, and CD69 expression. Flow cytometry was performed with a BD FACSCelesta or FACSCanoto flow cytometer with FACSDiva acquisition software (Becton Dickinson, Mountain View, CA) prior to analysis with FlowJo (TreeStar Inc., Ashland, OR, USA).
Isolated compounds were resuspended in dimethyl sulfoxide (DMSO; Sigma-Aldrich, Burlington, USA), at a concentration of 10 mM, and diluted with PBS, and tested with J-lat 10.6 cells at concentrations of 100, 10, and 1 μM. J-lat 10.6 cells were tested with compounds at a concentration of 2.5 × 10^5 cells/mL. We performed a minimum of three replicates of each condition for all experiments. Negative controls contained 1% DMSO to account for any effect of DMSO in the highest dilution of compounds.

The subject of another series is PKC. As to the kind of experiment: Latency reversal activity in the presence and absence of pan-PKC inhibitor Gö6983. Format: cell-based, human. Particulars: presence versus absence of pan-PKC inhibitor Gö6983. The text has this:
(§4) In order to determine whether our active compounds were acting through PKC, we evaluated the latency reversal activity of each of these compounds in the presence and absence of a pan-PKC inhibitor, Gö6983 (Figure 7).
Figure 7 Effect of PKC inhibition on HIV-1 reactivation of compounds 13–14, 21, 26, and 27.

Another series relates to CD69. As to the kind of experiment: CD69 expression on J-lat cells (flow cytometry). It is filed as cell-based, human. How it is done: as §4, §3
The next series relates to latent HIV. Set-up: method as in PMID 30031972. Particulars: read-out: EC50, reactivation of latent HIV; cited from earlier work.
Another series is described as follows: in vitro. It is filed as cell-based, human. Particulars: human, J-Lat 10.6 cells; read-out: cellular CC50. How it is done:
as §1, §2, §3
(§5) Isolated compounds were resuspended in dimethyl sulfoxide (DMSO; Sigma-Aldrich, Burlington, USA), at a concentration of 10 mM, and diluted with PBS, and tested with J-lat 10.6 cells at concentrations of 100, 10, and 1 μM. J-lat 10.6 cells were tested with compounds at a concentration of 2.5 × 10^5 cells/mL. […]

A further series has as its system J-Lat 10.6 cells. As to the kind of experiment: in vitro. Format: cell-based, human. Particulars: read-out: cellular CC50. How it is done: as §1, §2, §3, §5
Another series concerns HIV-1. Particulars: read-out: EC50, anti-HIV-1 activity; cited from earlier work.
Another series concerns HIV-1 latency. Set-up: method as in PMID 30944245. Particulars: through the PKC pathway; cited from earlier work.

For `COc1cc(C2OCC3C(c4cc(OC)c(O)c(OC)c4)OCC23)cc(OC)c1O` (single isomer, unassigned; (+)) [Compound 26, (+)-syringaresinol], in the series on latent HIV-1, the “HIV-1 latency reversal activity of isolated compounds (in words)” value (“HIV-1 latency reversal activity” for short) is given as “showed HIV-1 latency reversal activity”. In the series on PKC, the “latency reversal activity when PKC was inhibited (in words)” value was “did not show a significant reduction”. The “CD69 expression (hallmark of PKC activation) (in words)” value in the series with CD69 is on record as “did not increase CD69 expression”.

As for `CC1=C[C@]23C(=O)[C@@H](C=C(CO)[C@@H](O)[C@]2(O)[C@H]1OC(=O)c1ccc2ccccc2c1)[C@H]1[C@@H](C[C@H]3C)C1(C)C` [3-(2-naphthoyl)ingenol], the negative logarithm of the EC50 (pEC50) (commonly the EC50 on a negative log10 scale, so that one unit is a factor of ten) with latent HIV was 8.62.

For the compound `C/C=C(/C)C(=O)O[C@H]1C(C)=C[C@]23C(=O)[C@@H](C=C(CO)[C@@H](O)[C@]12O)[C@H]1[C@@H](C[C@H]3C)C1(C)C` [3-angeloylingenol], in the series on latent HIV, the pEC50 is 8.38.

On to `CC(=O)O[C@@]12[C@H](OC(=O)c3ccccc3)[C@@H](C)[C@]3(O)[C@@H]4C=C(C)C(=O)C4=CC(C)=C[C@H]3[C@@H]1C2(C)C` [Compound 12, 12-O-benzoyl-13-acetoxy-4,20-dideoxyphorbol-4-ene], for which, in the series with latent HIV-1, the “HIV-1 latency reversal activity” value was “showed HIV-1 latency reversal activity”. Besides, the “latency reversal activity when PKC was inhibited (in words)” value with PKC is listed as “reduced efficacy”.

For the compound `CC(=O)O[C@@]12[C@H](OC(=O)c3ccccc3)[C@@H](C)[C@]3(O)[C@@H]4C=C(C)C(=O)[C@@H]4CC(CO)=C[C@H]3[C@@H]1C2(C)C` [Compound 13, crotignoid K], in the series with latent HIV-1, the pEC50 was 5.43 and the “HIV-1 latency reversal activity” value is reported as “showed HIV-1 latency reversal activity”. The CC50 (in general, the concentration giving 50% cytotoxicity) at 24 h in the series “in vitro” came out at 40 µM. For the same compound, in the series with PKC, the “latency reversal activity when PKC was inhibited (in words)” value is recorded as “reduced efficacy”.

As to `CC(=O)O[C@@]12[C@H](OC(=O)c3ccccc3)[C@@H](C)[C@]3(O)[C@@H]4C=C(C)C(=O)[C@H]4CC(CO)=C[C@H]3[C@@H]1C2(C)C` [Compound 14, 4β-Crotignoid K], in the series with latent HIV-1, the negative-log EC50 (pEC50) was 7.82 and the “HIV-1 latency reversal activity” value is reported as “showed HIV-1 latency reversal activity”. Also, in the series on latent HIV-1 (J-Lat 10.6 cells, compared to crotignoid K (13)), the “fold difference in selectivity index (CC50/EC50), 14 versus 13” value was ~ 1000 fold. Moreover, the 50% cytotoxic concentration (CC50) at 24 h in the series “in vitro” was determined as 160 µM. The half-maximal cytotoxic concentration (CC50) with J-Lat 10.6 cells was greater than 160 µM. In addition, the “latency reversal activity when PKC was inhibited (in words)” value in the series on PKC was “reduced efficacy”.

Consider `CC1=C2C=C3CC[C@@H]4C(C)(C)C(=O)CC[C@@]4(C)[C@@H]3C[C@H]2OC1=O` [Compound 21, helioscopinolide E], for which, in the series with latent HIV-1, the “HIV-1 latency reversal activity” value is listed as “showed HIV-1 latency reversal activity”. Besides, in the series with PKC, the “latency reversal activity when PKC was inhibited (in words)” value was “reduced efficacy”.

Take `COc1cc([C@H]2Oc3c(OC)cc(/C=C/COC(C)=O)cc3[C@@H]2COC(C)=O)ccc1O` [Compound 27, dimeric coniferyl acetate]: in the series on latent HIV-1, the “HIV-1 latency reversal activity” value was “showed HIV-1 latency reversal activity”. For the same compound, the “latency reversal activity when PKC was inhibited (in words)” value with PKC is listed as “did not show a significant reduction”. The “CD69 expression (hallmark of PKC activation) (in words)” value in the series with CD69 is given as “did not increase CD69 expression”.

For `CC1(C)OC[C@@]2(C[C@]34CC[C@H]2C[C@H]3[C@]2(C)CC[C@H](O)C(C)(C)[C@H]2CC4)O1` [euphorneroid D], the pEC50 with HIV-1 was 4.47.

`CC1=C[C@]23C(=O)[C@@H](C=C(CO)[C@@H](O)[C@]2(O)[C@H]1O)[C@H]1[C@@H](C[C@H]3C)C1(C)C` [ingenol]: in the series with HIV-1 latency, the “reactivation of HIV-1 latency (in words)” value is “significant effect in the reactivation of HIV-1 latency”.

As to ent-3-oxoatisan-16α,17-acetonide, in the series with HIV-1, the pEC50 is 4.62.
